Laboratory results published in patent US10800783B2, “CDK2/4/6 inhibitors” (Pfizer Inc., priority 2016, dated 2020).
Where two headings read alike, the source gives them in different places.

Legend:
CDK6/Cyclin D1 [1] = molecular target: T1, CDK6/Cyclin D1 (Homo sapiens (Human), UniProt Q00534); assay: biochemical
CDK6/Cyclin D1 [2] = molecular target: T1, CDK6/Cyclin D1; settings: read-out: CDK6_Ki; non-phosphorylated CDK6/Cyclin D1, 2 mM ATP
[3] = tested on: OVCAR3 mouse tumor xenograft; assay: Ovcar3 tumor model (mouse xenograft); type: in vivo; settings: NSG mice; 10 mpk PO QD, 50 mpk PO QD and 50 mpk PO BID, 14 days
Protocol: Ovcar3 tumor cell line, purchased from ATCC (ATCC HTB-161™) was cultured in RPMI1640 (1×) media (Gibco™ cat #11875-093) with 10% FBS (Gibco™ cat #26140-079). To establish a Ovcar3 xenograft model, 5×10^6 cells per mouse was implanted subcutaneously into right hind flank NSG mice (#5557-NOD.cg-PrkdcJackson Lab). Cells were suspended in 50% matrigel (Cultrex Basement Membrane Extract (BME), Trevigen's Basement Membrane Matrix) and 50% RPMI1640 (1×) media (Gibco™ cat #11875-093) serum free media prior to implantation.
Animals were randomized 39 days after cells implantation with each group consisted of 4 mice. Treatment began when tumors reached 100 mm^3-190 mm^3 in size. Test compounds were prepared in 40% Captisol and dosed PO at 10 and 50 mg/kg QD or at 50 mg/kg BID as a suspension for 14 days. Animals were taken down at designated time. Mice receiving no drugs were given vehicle QD or BID for 14 days. Tumor volumes were measured once prior to randomization with an electric caliper, with tumor volumes were calculated using Length×Width×Width/2 formulation. Tumor volumes were measured twice a week with an electric caliper, with tumor volumes calculated using Length×Width×Width/2 formula. Animal weights were recorded twice weekly.

[4] = tested on: HCC1806 mouse tumor xenograft; assay: HCC1806 tumor model (mouse xenograft); type: in vivo; settings: NU/NU female mice; 30, 50 and 75 mpk PO BID, 14 days
Protocol: • Source: HCC1806 (# CRL 2335, ATCC, Manassas, Va.)
The HCC1806 tumor cell line was cultured in RPMI1640 media supplemented with 10% Fetal Bovine Serum (FBS). To establish a HCC1806 xenograft model, 5×10^6 cells per mouse were implanted subcutaneously into right hind flank NU/NU female mice. Cells were suspended in 50% Cultrex Basement Membrane Extract and 50% RPMI 1640 media serum free media prior to implantation.
Animals were randomized 7 days after cells implantation with each group consisting of 13 mice. Treatment began when tumors reached 100 mm^3 to 170 mm^3 in size on Day 7. Test compounds were prepared in 0.1% Tween, 0.5% Methyl cellulose in water and dosed PO at 30, 50, and 75 mg/kg as a suspension BID for 14 days. Mice receiving no drugs were given vehicle BID for 14 days. Tumor volumes were measured twice a week with an electric caliper, with tumor volumes calculated using Length×Width×Width/2 formula. Animal weights were recorded twice weekly.

CDK2/Cyclin E1 = CDK2/Cyclin E1 (Homo sapiens (Human), UniProt P24941); assay: biochemical
Protocol: The assay was initiated with the addition of ATP, following a fifteen minutes pre-incubation of enzyme and inhibitor at room temperature in the reaction mixture. The reaction was stopped after 45 minutes at room temperature by the addition of 50 μL of 80 mM EDTA, pH 7.5.

T1 sequence (Q00534 whole entry): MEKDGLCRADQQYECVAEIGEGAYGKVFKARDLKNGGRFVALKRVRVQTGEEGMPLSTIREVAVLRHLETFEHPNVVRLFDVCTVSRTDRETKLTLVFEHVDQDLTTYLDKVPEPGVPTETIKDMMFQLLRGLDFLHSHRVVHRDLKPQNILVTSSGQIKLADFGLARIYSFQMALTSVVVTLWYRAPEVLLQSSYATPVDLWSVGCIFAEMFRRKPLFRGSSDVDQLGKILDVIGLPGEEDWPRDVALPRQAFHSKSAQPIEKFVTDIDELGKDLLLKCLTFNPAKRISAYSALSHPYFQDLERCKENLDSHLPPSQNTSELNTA
T1 sequence (P24385 whole entry partner): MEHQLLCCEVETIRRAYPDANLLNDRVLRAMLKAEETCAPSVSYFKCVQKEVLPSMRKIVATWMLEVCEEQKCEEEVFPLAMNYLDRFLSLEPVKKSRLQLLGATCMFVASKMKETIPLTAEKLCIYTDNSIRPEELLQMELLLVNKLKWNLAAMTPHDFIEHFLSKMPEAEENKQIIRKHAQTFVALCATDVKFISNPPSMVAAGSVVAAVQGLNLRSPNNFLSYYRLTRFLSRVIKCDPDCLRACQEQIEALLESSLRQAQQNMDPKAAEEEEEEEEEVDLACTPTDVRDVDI

Structure (SMILES)	Ki (CDK6/Cyclin D1 [1]) [nM]	further results
Cc1cc2cnc(NC3CCN(S(=O)(=O)NC[C@@H]4CCCO4)CC3)nc2n([C@H]2CCC[C@]2(C)O)c1=O (stereo in doubt) [Example 101]	23.5	–
C[C@@]1(O)CCC[C@H]1n1c(=O)ccc2cnc(NC3CCN(S(=O)(=O)C4CCS(=O)(=O)C4)CC3)nc21 (single isomer, unassigned) [Example 71]	–	Ki (CDK6/Cyclin D1 [2]): 1.55 nM
C[C@@]1(O)CCC[C@H]1n1c(=O)ccc2cnc(NC3CCN(S(C)(=O)=O)CC3)nc21 [Example 2, 8-[(1R,2R)-2-hydroxy-2-methylcyclopentyl]-2-{[1-(methylsulfonyl)piperidin-4-yl]amino}pyrido[2,3-d]pyrimidin-7(8H)-one]	–	inhibition of tumor growth (mm^3) [3]: dose dependent inhibition of tumor growth; inhibition of tumor growth (mm^3) [4]: dose dependent inhibition of tumor growth
C[C@]1(O)CCC[C@@H]1n1c(=O)ccc2cnc(NC3CCN(S(=O)(=O)NC[C@H]4CCCO4)CC3)nc21 (stereo in doubt) [Example 65]	25.6	–
CNS(=O)(=O)N1CCC(Nc2ncc3ccc(=O)n([C@@H]4CCC[C@H]4O)c3n2)CC1 [Example 55]	–	Ki (CDK2/Cyclin E1): 4.66 nM

Second part, led by results:

Ki (CDK6/Cyclin D1 [1]) [nM]	Structure (SMILES)	further results
4.69	C[C@@]1(O)CCC[C@H]1n1c(=O)ccc2cnc(NC3CCN(S(=O)(=O)NC[C@H]4CCCO4)CC3)nc21 (stereo in doubt) [Example 64]	–
5.69	C[C@@]1(O)CCC[C@H]1n1c(=O)ccc2cnc(NC3CCN(S(=O)(=O)NC[C@@H]4CCCO4)CC3)nc21 (stereo in doubt) [Example 62]	–
19.6	Cc1cc2cnc(NC3CCN(S(=O)(=O)NC[C@H]4CCCO4)CC3)nc2n([C@H]2CCC[C@]2(C)O)c1=O (stereo in doubt) [Example 103]	–
0.8	Cc1cc2cnc(NC3CCN(S(=O)(=O)NC[C@H]4CCCO4)CC3)nc2n([C@@H]2CCC[C@@]2(C)O)c1=O (stereo in doubt) [Example 102]	–
16.5	C[C@]1(O)CCC[C@@H]1n1c(=O)ccc2cnc(NC3CCN(S(=O)(=O)NC[C@@H]4CCCO4)CC3)nc21 (stereo in doubt) [Example 63]	–
1.07	Cc1cc2cnc(NC3CCN(S(=O)(=O)NC[C@@H]4CCCO4)CC3)nc2n([C@@H]2CCC[C@@]2(C)O)c1=O (stereo in doubt) [Example 100]	–
